Data published in patent US20210007356A1, “IMIDE DERIVATIVE AND FUNGICIDE CONTAINING SAID DERIVATIVE AS ACTIVE INGREDIENT” (HOKKO CHEMICAL INDUSTRY CO., LTD., priority 2018, published 2021).
Like-named read-outs stand apart in the source and are kept apart here.

What was measured:
[1] = tested on: rice sheath blight fungus (Thanatephorus cucumeris); test: Test Example 8: control effect against rice sheath blight by box treatment (granule); conditions: 5 g of granule on nursery box, paddy rice; inoculated after 3 weeks; 7 days after inoculation
Source text: Control value (%)=[1−(lesion height in sprayed plot/lesion height in unsprayed plot)]×100 (d)
From the top of a nursery box, 5 g of a granule prepared according to Formulation Example-4 was applied to a 2.5-leaf-stage paddy rice (variety: Asahi) seedling raised using a nursery box ( 1/10 the area of standard nursery box in size: 12 cm×15 cm×height 4 cm) within a greenhouse. The formulation-treated paddy rice seedling was immediately transplanted at 5 seedlings/pot into a pot ( 1/10000 are in size) filled with paddy soil (flooded). After growing for 3 weeks within a greenhouse, a culture of rice sheath blight fungus (Thanatephorus cucumeris) grown in advance on a rice straw medium was inoculated into the root of the formulation-treated paddy rice, and disease development was promoted in an artificial weather chamber at 26° C. (relative humidity=100%). Seven days after the inoculation, the rice sheath blight lesion height (height from the root) was examined, and the control value (%) was calculated according to formula (d). […] This test was performed with three replications, each consisting of one plot and one pot, per one formulation plot, and its average evaluation value of control effect was determined.

[2] = tested on: rice blast fungus (Pyricularia grisea); format: in vivo; conditions: flowable 5,000 ppm, 50 mL irrigation of nursery box, paddy rice; inoculated after 3 weeks; 7 days after inoculation
[3] = tested on: rice sheath blight fungus (Thanatephorus cucumeris); test: Test Example 10: control effect against rice sheath blight by water surface application (flowable formulation); conditions: flowable 1,000 ppm, 1 mL dripped in paddy water, inoculated after 1 week, 7 days after inoculation
[4] = tested on: rice blast fungus (Pyricularia grisea); format: in vivo; conditions: flowable 1,000 ppm, 1 mL dripped in paddy water, inoculated after 1 week, 7 days after inoculation
[5] = tested on: barley powdery mildew fungus (Erysiphe graminis); test: Test Example 2: control effect against barley powdery mildew by foliage application; format: in vivo; conditions: wettable powder diluted to 100 ppm, 10 mL per pot foliage spray on barley; inoculated day after; 7 days after inoculation
[6] = tested on: rice blast fungus (Pyricularia grisea); format: in vivo; conditions: 5 g of granule on nursery box, paddy rice; inoculated after 3 weeks; 7 days after inoculation
[7] = tested on: rice sheath blight fungus (Thanatephorus cucumeris); test: Test Example 6: control effect against rice sheath blight by box treatment (flowable formulation); conditions: flowable 5,000 ppm, 50 mL irrigation of nursery box, paddy rice; inoculated after 3 weeks; 7 days after inoculation

| SMILES | evaluation value of control effect (from control value, lesion height) [1] | evaluation value of control effect (from control value, number of lesions) [2] | evaluation value of control effect (from control value, lesion height) [3] | evaluation value of control effect (from control value, number of lesions) [4] | evaluation value of control effect (from control value, lesion area percentage) [5] | evaluation value of control effect (from control value, number of lesions) [6] | evaluation value of control effect (from control value, lesion height) [7] |
| --- | --- | --- | --- | --- | --- | --- | --- |
| CC(C)CC(C)c1ccccc1N(C(=O)c1cn(C)nc1C(F)F)C(=O)c1scnc1C(F)F (stereo not shown) [1-341] | 5 | 5 | 5 | 5 | 4 | 5 | 5 |
| CC(C)CC(C)c1ccccc1N(C(=O)c1cc(Cl)c(Cl)s1)C(=O)c1cn(C)nc1C(F)F (stereo not shown) [1-359] | 5 | 5 | 5 | 5 | 4 | 5 | 5 |
| Cn1cc(C(=O)N(C(=O)c2cc(Cl)nc(Cl)c2)c2ccccc2-c2cc(F)c(F)c(F)c2)c(C(F)F)n1 [1-375] | 5 | 5 | 5 | 5 | 4 | 5 | 5 |
| CC(C)CC(C)c1ccccc1N(C(=O)c1cc(F)nc(F)c1)C(=O)c1cn(C)nc1C(F)F (stereo not shown) [1-380] | 5 | 5 | 5 | 5 | 5 | 5 | 5 |
| Cc1nc(C(F)F)c(C(=O)N(C(=O)c2snc(Cl)c2Cl)c2ccccc2CCC(C)C)s1 [7-37] | 5 | 5 | 5 | 5 | 4 | 5 | 5 |
| Cc1nc(C(F)F)c(C(=O)N(C(=O)c2snc(Cl)c2Cl)c2ccccc2C(C)CC(C)C)s1 (stereo not shown) [7-38, N-(3,4-Dichloroisothiazole-5-carbonyl)-4-(difluoromethyl)-N-{2-(1,3-dimethylbutyl)phenyl}-2-methyl-thiazole-5-carboxamide] | 5 | 5 | 5 | 5 | 5 | 5 | 5 |
| Cc1nc(C(F)F)c(C(=O)N(C(=O)c2snnc2C)c2ccccc2CCC(C)C)s1 [7-151] | 5 | 5 | 5 | 5 | 4 | 5 | 5 |
| Cc1nc(C(F)F)c(C(=O)N(C(=O)c2snnc2C)c2ccccc2C(C)CC(C)C)s1 (stereo not shown) [7-152] | 5 | 5 | 5 | 5 | 5 | 5 | 5 |
| Cc1nc(C(F)F)c(C(=O)N(C(=O)c2snnc2C(F)F)c2ccccc2C(C)CC(C)C)s1 (stereo not shown) [7-176] | 5 | 5 | 5 | 5 | 5 | 5 | 5 |
| Cc1nc(C(F)F)c(C(=O)N(C(=O)c2cc(Cl)nc(Cl)c2)c2ccccc2C(C)CC(C)C)s1 (stereo not shown) [7-188] | 5 | 5 | 5 | 5 | 4 | 5 | 5 |
| Cc1nc(C(F)F)c(C(=O)N(C(=O)c2sc(C)nc2C(F)F)c2ccccc2CCC(C)C)s1 [7-237] | 5 | 5 | 5 | 5 | 4 | 5 | 5 |
| Cc1nc(C(F)F)c(C(=O)N(C(=O)c2scnc2C(F)(F)F)c2ccccc2C(C)CC(C)C)s1 (stereo not shown) [7-250] | 5 | 5 | 5 | 5 | 4 | 5 | 5 |
| Cc1nc(C(F)F)c(C(=O)N(C(=O)c2cccnc2C(F)F)c2ccccc2C(C)CC(C)C)s1 (stereo not shown) [7-270] | 5 | 5 | 5 | 5 | 4 | 5 | 5 |
| Cc1nc(C(F)F)c(C(=O)N(C(=O)c2cc(Cl)c(Cl)s2)c2ccccc2C(C)CC(C)C)s1 (stereo not shown) [7-274] | 5 | 5 | 5 | 5 | 4 | 5 | 5 |
| Cc1nc(C(F)F)c(C(=O)N(C(=O)c2onc(Cl)c2Cl)c2ccccc2C(C)CC(C)C)s1 (stereo not shown) [7-277] | 5 | 5 | 5 | 5 | 5 | 5 | 5 |
| Cc1ncc(C(=O)N(C(=O)c2cc(Cl)no2)c2ccccc2C(C)CC(C)C)s1 (stereo not shown) [7-278] | 5 | 5 | 5 | 5 | 4 | 5 | 5 |
